Among the data in patent US20140221499A1, “NOVEL RODENT CONTROL AGENTS AND USES THEREOF” (priority 2011, published 2014) are EC50 values, retold here.

In this assay the target is T1, rTAAR8c (Rattus norvegicus, UniProt Q923Y0).
T1 construct: Full Taar coding regions were cloned into pcDNA3.1; expressed in transfected cells; host or cells: HEK293
T1 sequence (Q923Y0 1-344): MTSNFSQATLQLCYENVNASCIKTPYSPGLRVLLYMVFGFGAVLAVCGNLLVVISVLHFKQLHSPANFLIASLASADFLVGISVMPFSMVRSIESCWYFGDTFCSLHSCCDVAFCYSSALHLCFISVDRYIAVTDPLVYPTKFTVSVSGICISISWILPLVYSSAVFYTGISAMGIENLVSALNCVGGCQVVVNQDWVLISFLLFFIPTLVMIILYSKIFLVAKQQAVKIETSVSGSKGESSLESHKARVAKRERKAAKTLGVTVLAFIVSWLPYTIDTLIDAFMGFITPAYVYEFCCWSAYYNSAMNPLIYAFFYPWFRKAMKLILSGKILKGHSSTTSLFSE
Put plainly: CRE-SEAP reporter gene assay in HEK293 cells transfected with rTAAR8c. The format is cell-based. To be noted: FIG. 11A, functional with or without 'Rho tag', EC50 ± s.e.m., 4-parameter Hill equation. The method, then:
FIG. 11 illustrates the dose-dependent responses of TAARs to amines. HEK293 cells were cotransfected with plasmids encoding CRE-SEAP and rTAARs (a) or mTAARs (b), incubated with concentrations of ligands indicated, and assayed for reporter activity (triplicates±s.d.). EC50 values (±s.e.m, bottom right) were calculated using SigmaPlot (Systat Software) and a 4-parameter Hill equation.
The following mixes (10 μM of each indicated compounds) were tested for their ability to activate rat TAARs. Mix 1: butylamine, dibutylamine, hexylamine. Mix 2: 2-aminopentane, isoamylamine, isobutylamine, isopropylamine. Mix 3: N,N-dimethylcyclohexylamine, 1-methylindole, tryptamine, phenylethylamine. Mix 4: indole, 1-methylpyrrolidine, 1-methylpiperidine, pyrrolidine. […]
Full Taar coding regions were cloned into pcDNA3.1-(Invitrogen) with or without a 5′ DNA extension of 69 bp encoding the first 20 amino acids of bovine rhodopsin followed by a cloning linker ([…]). […] Fluorescence was measured on an EnVision plate reader (Perkin Elmer) and SEAP activity graphed as relative fluorescence of a phosphatase substrate.
Here, we set out to identify agonists for additional mouse and rat TAARs. […] Transfected cells were incubated with test chemicals, and phosphatase activity was quantified with a fluorescent substrate as a reporter for TAAR activation. […]
(In general: Reporter assays use an easily measured gene product as a stand-in for the process of interest.)

The EC50 is the concentration needed to bring the measured effect to its halfway point. With `CN(C)C1CCCCC1` [N,N-DIMETHYLCYCLOHEXYLAMINE, N,N-dimethylcyclohexylamine], the EC50 amounted to 550 ± 190 nM.
